# Laboratory results reported in patent US5464848A, “1,2,4-oxadiazolyl-phenoxyalkylisoxazoles and their use as antiviral agents” (Sterling Winthrop Inc., priority 1993, dated 1995).
# Tests used:
# [1] = system: human rhinovirus serotypes, panel B; assay: MIC50/MIC80 over panel B of 10 human rhinovirus serotypes (HeLa cell CPE); assay type: cell-based; conditions: for MIC80: minimum concentration required to inhibit 80% of the tested serotypes
# Protocol: (§1) They are useful in inhibiting virus replication in vitro and are primarily active against picornaviruses, including enteroviruses, echovirus and coxsackie virus, especially rhinoviruses. […] The test procedure used was as follows: The MIC values were determined by an automated tissue culture infectious dose 50% (TCID-50) assay. HeLa cells in monoloyers in 96-well cluster plates were infected with a dilution of virus which had been shown empirically to produce 80% to 100% cytopathic effect (CPE) in 3 days in the absence of drug. The compound to be tested was serially diluted through 10, 2-fold cycles and added to the infected cells. After a 3 day incubation at 33° C. and 2.5% carbon dioxide, the cells were fixed with a 5% solution of glutaraldehyde followed by staining with a 0.25% solution of crystal violet in water. The plates were then rinsed, dried, and the amount of stain remaining in the well (a measure of intact cells) was quantitated with an optical density reader. The MIC was determined to be the concentration of compound which protected 50% of the cells from virus-induced CPE relative to an untreated virus control.
# (§2) In the above test procedures, representative compounds of formula I were tested against some the serotypes from either a panel of fifteen human rhinovirus (HRV) serotypes, (noted in the table as panel T) namely, HRV-2, -14, -1A, -1B, -6, -21, -22, -15, -25, -30, -50, -67, -89, -86 and -41 or against some of the serotypes from a panel of 10 human rhinovirus serotypes namely HRV-3, -4, -5, -9, -16, -18, -38, -66, -75 and -61, (noted in the table as panel B) and the MIC value, expressed in micrograms per milliliter ([…]), for each rhinovirus serotype was determined for each virus, example 1e is given as an example of the data. Then MIC50 and MIC80 values, which are the minimum concentrations of the compound required to inhibit 50% and 80%, respectively, of the tested serotypes were determined.
# (§3) The following Table gives the test results for representative compounds of the invention. The panel of viruses used in the test appears before the MIC80 and MIC50 figure and the number of serotypes which the compound is tested against (N) is indicated after the MIC80 and MIC50 figure.
# [2] = system: human rhinovirus (HRV) serotypes, panel T; assay: MIC50/MIC80 over panel T of fifteen human rhinovirus serotypes (HeLa cell CPE); assay type: cell-based; conditions: for MIC50: minimum concentration required to inhibit 50% of the tested serotypes; for MIC80: minimum concentration required to inhibit 80% of the tested serotypes
# Protocol: as §1, §2, §3
Molecule,"MIC50 ([2]; Human rhinovirus sp., 72 h) [µg/mL]",MIC80 [2] [µg/mL],other results
"Cc1cc(CCCOc2c(C)cc(-c3noc(C(F)(F)F)n3)cc2F)on1 [Example 60h, 5-{3-[2-Fluoro-6-methyl-4-(5-trifluoromethyl-1,2,4-oxadiazol-3-yl)phenoxy]propyl}-3-methylisoxazole]",–,–,"MIC50 ([1]; Human rhinovirus sp., 72 h): 0.328 µg/mL; MIC80 ([1]; panel B): 0.0315 µg/mL"
"5-{3-[2,6-Dimethyl-4-(5-difluoromethyl-1,2,4-oxadiazol-3-yl)phenoxy]-propyl}-3-methylisoxazole [Example 49g]",–,–,"MIC50 ([1]; panel B, minimum concentration required to inhibit 50% of the tested serotypes): 99 µg/mL; MIC80 ([1]; panel B): 49.859 µg/mL"
Cc1cc(-c2noc(C(F)(F)F)n2)cc(C)c1OCCCc1onc(C)c1Br [Example 57],–,–,"MIC50 ([1]; Human rhinovirus sp., 72 h): 99 µg/mL; MIC80 ([1]; panel B): 99 µg/mL"
"Cc1cc(CCCOc2c(C)cc(-c3noc(C(F)(F)Cl)n3)cc2C)on1 [Example 54a, 5-{3-[2,6-Dimethyl-4-(5-difluorochloromehyl-1,2,4-oxadiazol-3-yl)phenoxy]-propyl}-3-methylisoxazole]",–,–,"MIC50 ([1]; Human rhinovirus sp., 72 h): 49.6 µg/mL; MIC80 ([1]; panel B): 0.016 µg/mL"
"Cc1cc(CCCOc2c(F)cc(-c3noc(C(F)(F)F)n3)cc2I)on1 [Example 60e, 5-{3-[2-Fluoro-6-iodo-4-(5-trifluoromethyl-1,2,4-oxadiazol-3-yl)phenoxy]propyl}-3-methylisoxazole]",–,–,"MIC50 ([1]; Human rhinovirus sp., 72 h): 99 µg/mL; MIC80 ([1]; panel B): 0.4145 µg/mL"
"CN=c1[nH]c(-c2cc(C)c(OCCCc3cc(C)no3)c(C)c2)no1 [Example 18, 5-{3-[2,6-Dimethyl-4-(5-methylimino-4,5-dihydro-1,2,4-oxadiazol-3-yl)phenoxy]propyl}-3-methylisoxazole]",0.325,0.128,–
"Cc1cc(CCCOc2c(C)cc(-c3nc(C4CC4)no3)cc2C)on1 [Example 45l, 5-{3-[2,6-Dimethyl-4,(5-cyclopropyl-1,2,4-oxadiazol-3-yl)phenoxy]propyl}-3-methylisoxazole]",0.558,0.153,–
COCc1cc(CCCOc2c(C)cc(-c3noc(C4CC4)n3)cc2C)on1 [Example 26],0.183,0.038,–
"COCCc1cc(CCCOc2c(C)cc(-c3noc(C(F)(F)F)n3)cc2C)on1 [Example 29d, 5-{3-[2,6-Dimethyl-4-(5-trifluoromethyl-1,2,4-oxadiazol-3-yl)phenoxy]propyl}-3-(methoxyethyl)isoxazole]",0.172,0.715,–
"Cc1cc(CCCOc2c(C)cc(-c3noc(C(F)(F)F)n3)cc2Cl)on1 [Example 63d, 5-{3-[4-(5-Trifluoromethyl-1,2,4-oxadiazol-3-yl)2-chloro-6-methylphenoxy]propyl}-3-methylisoxazole]",–,–,"MIC50 ([1]; Human rhinovirus sp., 72 h): 0.304 µg/mL; MIC80 ([1]; panel B): 0.13 µg/mL"
"Cc1cc(CCCOc2c(C)cc(-c3noc(C(Cl)(Cl)Cl)n3)cc2C)on1 [Example 12, 5-{3-[2,6-Dimethyl-4-(5-trichloromethyl-1,2,4-oxadiazol-3-yl)-phenoxy]propyl}-3-methylisoxazole]",2.94,0.662,–
"Cc1cc(CCCOc2c(C)cc(-c3noc(CCl)n3)cc2C)on1 [Example 10, 5-{3-[4-(5-Chloromethyl-1,2,4-oxadiazol-3-yl) -2,6-dimethylphenoxy]propyl}-3-methylisoxazole]",0.279,0.141,–
"Cc1cc(CCCOc2c(C)cc(-c3noc(CF)n3)cc2C)on1 [Example 6, 5-{3-[2,6-Dimethyl-4-(5-fluoromethyl-1,2,4-oxadiazol-3-yl)phenoxy]propyl}-3-methylisoxazole]",0.073,0.046,–
Cc1cc(-c2noc(C(F)(F)F)n2)cc(C)c1OCCCc1cc(C(=O)O)no1 [Example 56e],99,5.304,–
"Cc1cc(CCCCCOc2c(C)cc(-c3noc(C(F)(F)F)n3)cc2C)on1 [Example 30c, 5-{5-[2,6-Dimethyl-4-(5-trifluoromethyl-1,2,4-oxadiazol-3-yl)-phenoxy]pentyl}-3-methylisoxazole]",0.694,0.225,–
"CSc1nc(-c2cc(C)c(OCCCc3cc(C)no3)c(C)c2)no1 [Example 58d, 5-{3-[2,6-dimethyl-4-(5-methylthio-1,2,4-oxadiazol-3-yl)phenoxy]-propyl}-3-methylisoxazole]",99,99,–
"Cc1cc(-c2noc(C(F)(F)F)n2)cc(C)c1OCCCc1cc(CCO)no1 [Example 33, 5-{3-[2,6-Dimethyl-4-(5-trifluoromethyl-1,2,4-oxadiazol-3-yl)-phenoxy]propyl}-3-(2-hydroxyethyl)isoxazole]",0.102,0.045,–
"CCOc1nc(-c2cc(C)c(OCCCc3cc(C)no3)c(C)c2)no1 [Example 17, 5-{3-[2,6-Dimethyl-4-(5-ethoxy-1,2,4-oxadiazol-3-yl)phenoxy]propyl}-3-methylisoxazole]",0.116,0.055,–
"Cc1cc(CCCOc2c(C)cc(-c3noc(C(F)F)n3)cc2Cl)on1 [Example 49d, 5-{3-[2,-Methyl-6-Chloro-4-(5-difluoromethyl-1,2,4-oxadiazol-3-yl)phenoxy]-propyl}-3-methylisoxazole]",99,99,–
"CCc1cc(CCCOc2c(C)cc(-c3noc(C(F)(F)F)n3)cc2C)on1 [Example 28c, 5-{3-[2,6-Dimethyl-4-(5-trifluoromethyl-1,2,4-oxadiazol-3-yl)phenoxy]propyl}-3-ethylisoxazole]",0.278,0.119,–
"CCc1cc(CCCOc2c(C)cc(-c3noc(C4CC4)n3)cc2C)on1 [Example 25, 5-{3-[4-(5-Cyclopropyl-1,2,4-oxadiazol-3-yl) -2,6-dimethylphenoxy]propyl}-3-ethylisoxazole]",0.312,0.085,–
"5-{3-[4-(5-Trifluoromethyl-1,2,4-oxadiazol-3-yl)2-cyano-6-chlorophenoxy]-propyl}-3-methylisoxazole [Example 62f]",–,0.09,MIC50 [2]: 0.213 µg/mL
"Cc1cc(-c2noc(C(F)(F)F)n2)cc(C)c1OCCCc1cc(CO)no1 [Example 34d, 5-{3-[2,6-Dimethyl-4-(5-trifluoromethyl-1,2,4-oxadiazol-3-yl)phenoxy]propyl}-3-(hydroxymethyl) isoxazole]",0.07,0.042,–
